{"source": "patent US7125997B2", "about": "“Differential tumor cytotoxicity compounds and compositions” (IRM LLC, priority 2002, dated 2006)", "tested_on": "Human SW620 colon tumor cells", "assay": "alamarBlue cell viability (cytotoxicity) assay, SW620", "type": "cell-based", "settings": "SW-620, 48 h, SW620 cell line, two days incubation, alamarBlue fluorescence", "method": "Human SW620 colon tumor cells are cultivated using 10% FCS/DMEM (Invitrogen) medium. The cells are plated into 384 well plates at a density of 8000 cells per well in a volume of 50 μL. The cells are placed in a 37° C. incubator and allowed to adhere overnight. Test compounds are added to the cells in a volume of 500 nL (final DMSO concentration in assay is 1%). Serial dilutions of the test compound are added (the top concentration of compound is 10 micromolar (final assay concentration) followed by 11 two fold dilutions. The cells are incubated for a further two days. A solution (50 μL) comprised of 20% alamarBlue™ (Biosource International, Inc.) and 80% assay medium is added to each well and the plates are incubated at 37° C. for a further 4 hours. The plates are read by fluorescence (530 nm excitation, 580 nm emission) on an Acquest reader (LJL Biosystems). The IC50 is defined as the concentration of a test compound at the end of the incubation period, which leads to 50% of cell viability per well compared with the control (concentration at semi-maximum inhibition of cell growth)."}
{"smiles": "O=C(Nc1ccc(N2CCOCC2)cc1)c1ccc(Nc2ccc(OC(F)(F)F)cc2)cc1", "note": "[Example 1, N-(4-Morpholin-4-yl-phenyl)-4-(4-trifluoromethoxy-phenylamino)-benzamide]", "values": [{"measurement": "IC50", "value": 26, "unit": "nM"}]}
